Measured values from patent US9440957B2, “Compounds and compositions for modulating EGFR Activity” (Novartis AG, priority 2012, dated 2016).
Read-outs that look alike come from different tables or passages of the source.

How the values were obtained:
[1] = target: human EGFR WT (NIH/3T3 cells, EGF-induced) (Homo sapiens, UniProt P00533); assay: EGFR target modulation in engineered NIH/3T3 cell lines (phospho-EGFR Y1068 AlphaLISA), EGFR WT; type: cell-based; conditions: engineered NIH/3T3 cells, read-out: NIH3T3 IC50 (μM) EGFR (WT)
Experimental: (§1) EGFR Target Modulation in Engineered NIH/3T3 Cell Lines Tissue Culture.
(§2) The cells were harvested with 0.05% Trypsin/EDTA (Hyclone #SH30236.01), re-suspended in 5% FBS/DMEM Pen/Strep without Puromycin and plated at 9,000 cells per well in 50 μl of media in a 384-well black plate with clear bottoms (Greiner #789068G). The cells were allowed to incubate overnight in a 37° C., 5% CO2 humidified tissue culture incubator. A 12-point test compound curve was prepared by serial diluting a 10 μM stock 1:3 in DMSO in a 384-well compound plate (Greiner #789201L). The serial diluted compounds were transferred to the plate containing cells by using a 50 nl Pin Head device (Perkin Elmer) and the cells were placed back in the incubator for 3 hours. Only the EGFR WT-expressing cells were induced with 50 ng/ml EGF (Preprotech #AF-100-15) for 5 minutes before lysis. […] The plates were shaken at 4° C. for 5 minutes with foil top at maximum speed. […] The plates were sealed with a foil top and frozen at −80° C. and thawed when needed.
(§3) The frozen aliquots were thawed and briefly centrifuged. All antibodies and beads were diluted in 1× AlphaLISA HiBlock Buffer (PE #AL004C). […] Goat anti-total EGFR (R&D Systems #AF231) was added and allowed to equilibrate for 1 hour at room temperature at 1 nM final concentration.
(§4) With these parameters, the IC50's for each compound in each cell line was calculated using non-linear curve fitting analysis.

[2] = target: human EGFR L858R (NIH/3T3 cells) (Homo sapiens, UniProt P00533, L858R); assay: EGFR target modulation in engineered NIH/3T3 cell lines (phospho-EGFR Y1068 AlphaLISA), EGFR L858R; type: cell-based; conditions: engineered NIH/3T3 cells, read-out: NIH3T3 IC50 (μM) EGFR (L858R)
Experimental: as §1, §2, §3, §4

[3] = target: T1, EGFR(L858R/T790M) (Homo sapiens, UniProt P00533, L858R/T790M); assay: EGFR biochemical assay (HTRF), IC50 determinations
T1 construct: purchased from Carna (GST-a.a. 669-1210)
Experimental: All EGFR biochemical assays were carried out by HTRF method. […] The substrate peptide Biotin-TK-peptide was purchased from Cis-Bio. […] All reactions were carried out at room temperature in white ProxiPlate™ 384-well Plus plates (PerkinElmer) and were quenched with 5 μL of 0.2 M EDTA at 60 min. Five L of the detection reagents (2.5 ng PT66K and 0.05 μg SAXL per well) were added, the plates were incubated at room temperature for 1 h and then read in EnVision reader. […] For no-preincubation condition, the compounds were added to the assay solution containing ATP and peptide, and the reaction was initiated by addition of enzyme. For pre-incubation conditions, the compounds were added to the assay solution containing enzyme and peptide, and pre-incubated at room temperature for desired period of time, then the reaction was initiated by addition of ATP.

[4] = target: human EGFR L858R/T790M (NIH/3T3 cells) (Homo sapiens, UniProt P00533, L858R/T790M); assay: EGFR target modulation in engineered NIH/3T3 cell lines (phospho-EGFR Y1068 AlphaLISA), EGFR L858R/T790M; type: cell-based; conditions: engineered NIH/3T3 cells, read-out: NIH3T3 IC50 (μM) EGFR (L858R/T790M)
Experimental: as §1, §2, §3, §4

[5] = EGFR (L858R/T790M) with 90 min pre-incubation, read-out: IC50 (μM) Column B
[6] = EGFR (L858R/T790M) with no pre-incubation, read-out: IC50 (μM) Column A

Chain of human EGFR L858R/T790M (NIH/3T3 cells) (P00533 25-1210 T790M/L858R): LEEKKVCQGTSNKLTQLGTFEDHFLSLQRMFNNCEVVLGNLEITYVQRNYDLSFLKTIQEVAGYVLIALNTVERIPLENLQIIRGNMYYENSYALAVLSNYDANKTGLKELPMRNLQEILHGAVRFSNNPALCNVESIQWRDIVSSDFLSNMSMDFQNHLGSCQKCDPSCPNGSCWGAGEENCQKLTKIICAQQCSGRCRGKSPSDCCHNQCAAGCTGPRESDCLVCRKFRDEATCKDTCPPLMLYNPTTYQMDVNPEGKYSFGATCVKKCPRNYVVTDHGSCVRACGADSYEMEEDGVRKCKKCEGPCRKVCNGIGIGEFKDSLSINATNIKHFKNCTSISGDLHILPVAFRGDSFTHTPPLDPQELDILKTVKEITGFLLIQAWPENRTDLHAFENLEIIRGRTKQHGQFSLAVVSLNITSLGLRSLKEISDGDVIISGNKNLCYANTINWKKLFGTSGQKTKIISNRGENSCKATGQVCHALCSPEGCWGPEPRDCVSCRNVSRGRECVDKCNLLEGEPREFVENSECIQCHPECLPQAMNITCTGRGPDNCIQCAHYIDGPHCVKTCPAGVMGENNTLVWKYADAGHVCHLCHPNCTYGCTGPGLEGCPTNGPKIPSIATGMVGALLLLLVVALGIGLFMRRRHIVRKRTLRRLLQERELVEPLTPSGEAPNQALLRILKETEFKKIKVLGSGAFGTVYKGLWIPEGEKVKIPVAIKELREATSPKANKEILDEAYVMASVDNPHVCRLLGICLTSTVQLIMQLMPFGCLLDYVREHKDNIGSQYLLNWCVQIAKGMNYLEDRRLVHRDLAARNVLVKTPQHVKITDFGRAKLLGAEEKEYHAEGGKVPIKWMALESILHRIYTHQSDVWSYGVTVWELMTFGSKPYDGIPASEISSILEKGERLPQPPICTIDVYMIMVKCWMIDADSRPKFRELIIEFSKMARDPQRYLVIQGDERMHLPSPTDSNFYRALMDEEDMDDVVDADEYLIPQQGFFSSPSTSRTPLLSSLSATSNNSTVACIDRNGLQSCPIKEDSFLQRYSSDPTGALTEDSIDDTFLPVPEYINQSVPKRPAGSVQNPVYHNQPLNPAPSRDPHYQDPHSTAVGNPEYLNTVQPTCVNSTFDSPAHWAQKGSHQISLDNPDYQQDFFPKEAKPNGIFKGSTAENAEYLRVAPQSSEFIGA
Chain of human EGFR WT (NIH/3T3 cells, EGF-induced) (P00533 25-1210): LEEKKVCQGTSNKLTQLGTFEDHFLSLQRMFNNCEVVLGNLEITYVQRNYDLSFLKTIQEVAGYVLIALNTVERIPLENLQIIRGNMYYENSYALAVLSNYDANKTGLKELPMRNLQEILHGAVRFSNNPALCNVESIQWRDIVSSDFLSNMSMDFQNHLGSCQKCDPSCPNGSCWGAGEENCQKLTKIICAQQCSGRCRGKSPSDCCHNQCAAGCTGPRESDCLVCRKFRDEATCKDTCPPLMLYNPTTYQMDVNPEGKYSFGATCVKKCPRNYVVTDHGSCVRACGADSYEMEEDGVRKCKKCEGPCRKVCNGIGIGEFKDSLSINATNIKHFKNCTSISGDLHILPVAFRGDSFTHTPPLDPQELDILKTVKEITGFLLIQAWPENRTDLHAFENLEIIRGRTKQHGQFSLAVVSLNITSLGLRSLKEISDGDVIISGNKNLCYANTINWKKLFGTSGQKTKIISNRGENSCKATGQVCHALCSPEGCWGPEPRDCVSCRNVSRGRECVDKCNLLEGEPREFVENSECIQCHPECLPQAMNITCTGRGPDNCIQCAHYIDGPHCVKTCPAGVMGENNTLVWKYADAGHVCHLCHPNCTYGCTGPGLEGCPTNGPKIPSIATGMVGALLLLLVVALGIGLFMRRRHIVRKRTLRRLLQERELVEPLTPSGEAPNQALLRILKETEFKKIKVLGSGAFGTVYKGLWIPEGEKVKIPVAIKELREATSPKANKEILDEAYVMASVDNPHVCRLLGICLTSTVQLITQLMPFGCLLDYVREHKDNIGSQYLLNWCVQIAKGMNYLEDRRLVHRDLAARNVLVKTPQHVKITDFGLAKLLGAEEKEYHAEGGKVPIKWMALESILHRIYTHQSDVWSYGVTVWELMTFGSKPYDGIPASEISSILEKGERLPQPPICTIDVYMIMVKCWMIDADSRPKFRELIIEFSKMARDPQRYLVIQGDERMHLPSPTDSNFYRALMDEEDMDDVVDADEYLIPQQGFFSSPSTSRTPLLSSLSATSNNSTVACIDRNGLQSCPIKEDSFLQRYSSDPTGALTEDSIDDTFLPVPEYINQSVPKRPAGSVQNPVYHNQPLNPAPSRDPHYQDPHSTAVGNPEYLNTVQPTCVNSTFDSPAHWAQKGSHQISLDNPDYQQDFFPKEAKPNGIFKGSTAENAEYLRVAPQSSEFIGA
T1 sequence (P00533 669-1210 T790M/L858R): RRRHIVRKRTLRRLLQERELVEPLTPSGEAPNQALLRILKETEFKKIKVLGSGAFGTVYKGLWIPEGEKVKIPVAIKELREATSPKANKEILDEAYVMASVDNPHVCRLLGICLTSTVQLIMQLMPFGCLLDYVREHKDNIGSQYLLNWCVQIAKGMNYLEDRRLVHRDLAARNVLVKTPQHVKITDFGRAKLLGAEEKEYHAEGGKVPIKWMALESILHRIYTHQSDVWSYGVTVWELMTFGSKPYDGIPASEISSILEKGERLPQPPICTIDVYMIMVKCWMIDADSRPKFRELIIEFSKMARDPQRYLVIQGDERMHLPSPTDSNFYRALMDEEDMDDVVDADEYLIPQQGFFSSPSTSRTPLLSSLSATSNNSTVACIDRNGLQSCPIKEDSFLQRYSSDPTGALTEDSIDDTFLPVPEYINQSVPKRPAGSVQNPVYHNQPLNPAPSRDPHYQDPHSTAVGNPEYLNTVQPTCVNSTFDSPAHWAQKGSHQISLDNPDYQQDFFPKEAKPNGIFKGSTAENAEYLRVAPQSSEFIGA
Chain of human EGFR L858R (NIH/3T3 cells) (P00533 25-1210 L858R): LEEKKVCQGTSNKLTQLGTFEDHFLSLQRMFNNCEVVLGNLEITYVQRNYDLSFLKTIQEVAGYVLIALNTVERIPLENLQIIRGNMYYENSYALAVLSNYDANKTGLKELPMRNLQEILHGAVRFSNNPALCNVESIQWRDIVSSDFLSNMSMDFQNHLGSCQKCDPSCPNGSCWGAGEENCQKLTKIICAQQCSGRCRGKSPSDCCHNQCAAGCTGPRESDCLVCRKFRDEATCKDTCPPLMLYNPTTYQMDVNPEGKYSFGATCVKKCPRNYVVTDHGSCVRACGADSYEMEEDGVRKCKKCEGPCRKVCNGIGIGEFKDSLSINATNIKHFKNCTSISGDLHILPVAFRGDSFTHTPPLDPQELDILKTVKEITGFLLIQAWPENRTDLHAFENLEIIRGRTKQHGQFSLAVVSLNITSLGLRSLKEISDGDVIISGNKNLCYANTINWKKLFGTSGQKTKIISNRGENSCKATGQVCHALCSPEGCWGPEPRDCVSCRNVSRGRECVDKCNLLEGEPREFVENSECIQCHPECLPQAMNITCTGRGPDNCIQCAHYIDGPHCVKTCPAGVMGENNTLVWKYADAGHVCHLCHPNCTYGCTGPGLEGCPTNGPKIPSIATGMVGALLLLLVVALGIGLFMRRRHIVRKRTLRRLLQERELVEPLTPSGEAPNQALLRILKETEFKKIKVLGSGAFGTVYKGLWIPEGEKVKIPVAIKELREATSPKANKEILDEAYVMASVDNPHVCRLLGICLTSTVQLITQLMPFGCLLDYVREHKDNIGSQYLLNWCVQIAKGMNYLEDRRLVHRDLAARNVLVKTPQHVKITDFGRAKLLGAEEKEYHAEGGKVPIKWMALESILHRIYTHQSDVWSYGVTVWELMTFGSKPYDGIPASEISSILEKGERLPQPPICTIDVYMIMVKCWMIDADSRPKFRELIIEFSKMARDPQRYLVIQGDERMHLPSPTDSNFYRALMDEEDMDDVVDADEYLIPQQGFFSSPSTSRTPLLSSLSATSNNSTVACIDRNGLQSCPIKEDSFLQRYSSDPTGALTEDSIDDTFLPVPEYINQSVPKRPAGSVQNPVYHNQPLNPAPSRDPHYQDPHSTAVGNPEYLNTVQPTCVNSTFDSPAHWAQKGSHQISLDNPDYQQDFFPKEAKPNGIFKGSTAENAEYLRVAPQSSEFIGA

Row | Compound | IC50 [1] [µM] | IC50 [2] [µM] | IC50 [3, 5] [µM] | IC50 [3, 6] [µM] | IC50 [4] [µM]
1 | Cc1cccc2nc(NC(=O)c3ccnc(C(F)(F)F)c3)n([C@H]3CCCCN(C(=O)/C=C/CN(C)C)C3)c12 (single isomer, unassigned) [Example 21-1] | > 10 | 2.23 | 0.012 | 0.171 | 0.12
2 | C=CC(=O)N1CCCC[C@H](n2c(NC(=O)c3cccc(C(F)(F)F)c3)nc3cccc(C)c32)C1 (single isomer, unassigned) [Example 21-3] | > 10 | 2.2 | 0.098 | 0.7 | 0.45
3 | C=CC(=O)N1CCOCC(n2c(NC(=O)c3cccc(C(F)(F)F)c3)nc3cccc(C)c32)C1 (single isomer, unassigned) [Example 21-7A] | > 10 | 3.2 | 0.56 | 2.01 | 0.49
4 | C=CC(=O)N1CCOCC(n2c(NC(=O)c3cccc(C(F)(F)F)c3)nc3cccc(C)c32)C1 (single isomer, unassigned) [Example 21-7B] | 0.65 | 0.012 | < 0.001 | 0.008 | 0.002
5 | Cc1ncc(C(=O)Nc2nc3cccc(C)c3n2C2CCCCN(C(=O)/C=C/CN(C)C)C2)s1 (single isomer, unassigned) [Example 21-8A] | 0.98 | 0.211 | 0.033 | 0.62 | 0.138
6 | C=CC(=O)N1CCC[C@H](n2c(NC(=O)c3cccc(C(F)(F)F)c3)nc3cc(C)ccc32)C1 [4, 21-5] | – | – | 0.071 | 0.41 | –
7 | Cc1cccc2nc(NC(=O)c3ccnc(C(F)(F)F)c3)n([C@@H]3CCCCN(C(=O)/C=C/CN(C)C)C3)c12 [8, 21-2] | – | – | < 0.001 | < 0.001 | –
8 | C=CC(=O)N1CCC[C@@H](n2c(NC(=O)c3cccc(C(F)(F)F)c3)nc3cc(C)ccc32)C1 [17-105, 21-6] | – | – | 0.002 | 0.1 | –
9 | Cc1cc(C(=O)Nc2nc3cccc(Cl)c3n2[C@@H]2CCCCN(C(=O)/C=C/CN3CC[C@H](O)C3)C2)ccn1 [Example 3-7] | 0.89 | 0.009 | < 0.001 | 0.006 | 0.021
10 | COC1CN(C/C=C/C(=O)N2CCCC[C@@H](n3c(NC(=O)c4ccnc(C)c4)nc4cccc(Cl)c43)C2)C1 [Example 3-14] | 0.78 | 0.011 | < 0.001 | 0.012 | 0.012
11 | C=CS(=O)(=O)N1CCCCC(n2c(NC(=O)c3cccc(C(F)(F)F)c3)nc3cccc(C)c32)C1 (stereo not shown) [Example 10, N-(7-methyl-1-(1-(vinylsulfonyl)azepan-3-yl)-1H-benzo[d]imidazol-2-yl)-3-(trifluoromethyl)benzamide] | > 10 | 0.34 | 0.009 | 0.39 | 0.037
12 | C=CC(=O)N1CCCCC(n2c(NC(=O)c3cccc(C(F)(F)F)c3)nc3cccc(CN4CCCC4)c32)C1 (stereo not shown) [Example 11, N-(1-(1-acryloyazepan-3-yl)-7-(pyrrolidin-1-ylmethyl)-1H-benzo[d]imidazol-2-yl)-3-(trifluoromethyl)benzamide] | 0.12 | 0.002 | < 0.001 | 0.012 | 0.002
13 | Cc1cccc2nc(NC(=O)c3ccccc3F)n(C3CCCCN(C(=O)/C=C/CN(C)C)C3)c12 (stereo not shown) [Example 17-3] | 0.86 | 0.034 | < 0.001 | 0.026 | 0.015
14 | Cc1cccc2nc(NC(=O)c3cnco3)n(C3CCCCN(C(=O)/C=C/CN(C)C)C3)c12 (stereo not shown) [Example 17-5] | 0.172 | 0.008 | 0.001 | 0.022 | 0.011
15 | Cc1cccc2nc(NC(=O)c3cccc(C(F)(F)F)c3)n([C@H]3COCCN(C(=O)/C=C/CN(C)C)C3)c12 [Example 17-6] | 6 | 0.7 | 0.01 | 0.189 | 0.244
16 | Cc1cccc2nc(NC(=O)c3cccc(C(F)(F)F)c3)n([C@@H]3COCCN(C(=O)/C=C/CN(C)C)C3)c12 [Example 17-7] | 0.55 | 0.015 | < 0.001 | 0.005 | 0.003
17 | C=CC(=O)N1CCCC(n2c(NC(=O)c3cccc(C(F)(F)F)c3)nc3cnccc32)C1 (stereo not shown) [Example 17-8] | > 10 | 5.5 | 0.137 | 7 | 0.37

Row | Compound | IC50 [1] [µM] | IC50 [2] [µM] | IC50 [3, 5] [µM] | IC50 [3, 6] [µM] | IC50 [4] [µM]
18 | C=CC(=O)N1CCCC(n2c(NC(=O)c3cccc(C(F)(F)F)c3)nc3ccncc32)C1 (stereo not shown) [Example 17-9] | > 10 | 8.6 | 0.218 | 4.1 | 0.194
19 | C=CC(=O)N1CCCCC(n2c(NC(=O)c3cccc(C(F)(F)F)c3)nc3cccc(C)c32)C1 (stereo not shown) [Example 17-10] | 1.65 | 0.007 | < 0.001 | 0.014 | 0.003
20 | C=CC(=O)N1CCCCC(n2c(NC(=O)c3ccccc3)nc3cccc(C)c32)C1 (stereo not shown) [Example 17-11] | 1.54 | 0.015 | < 0.001 | < 0.001 | 0.002
21 | C=CC(=O)N1CCCC[C@@H](n2c(NC(=O)c3cccc(C(F)(F)F)c3)nc3ccccc32)C1 [Example 17-13] | 0.43 | 0.008 | < 0.001 | 0.006 | 0.001
22 | C=CC(=O)N1CCOCC(n2c(NC(=O)c3cccc(C(F)(F)F)c3)nc3cccc(C)c32)C1 (stereo not shown) [Example 17-14] | 1.08 | 0.016 | 0.005 | 0.033 | 0.003
23 | C=CC(=O)N1CCCC[C@@H](n2c(NC(=O)c3cccc(C(F)(F)F)c3)nc3cccc(Cl)c32)C1 [Example 17-18] | 2.48 | 0.02 | < 0.001 | 0.014 | 0.004
24 | Cc1cccc2nc(NC(=O)c3cn4ccsc4n3)n(C3CCCCN(C(=O)/C=C/CN(C)C)C3)c12 (stereo not shown) [Example 17-51] | – | 0.47 | 0.048 | 1.95 | 0.65
25 | Cc1cccc2nc(NC(=O)c3ccnc(-n4cnnn4)c3)n(C3CCCCN(C(=O)/C=C/CN(C)C)C3)c12 (stereo not shown) [Example 17-60] | 0.012 | 0.002 | – | – | 0.002
26 | Cc1ncccc1C(=O)Nc1nc2cccc(C)c2n1C1CCCCN(C(=O)/C=C/CN(C)C)C1 (stereo not shown) [Example 17-62] | 2.5 | 0.234 | 0.006 | 0.14 | –
27 | Cc1cccc2nc(NC(=O)c3ccn4cncc4c3)n(C3CCCCN(C(=O)/C=C/CN(C)C)C3)c12 (stereo not shown) [Example 17-63] | 0.038 | 0.003 | < 0.001 | 0.003 | –
28 | C=CC(=O)N1CCC(n2c(NC(=O)c3cccc(C(F)(F)F)c3)nc3cc(C)ccc32)CC1 [Example 17-97] | – | – | 0.4 | 0.204 | –
29 | C=CC(=O)N1CCC(n2c(NC(=O)c3cccc(C(F)(F)F)c3)nc3cc(C)ccc32)C1 (stereo not shown) [Example 17-98] | – | – | 0.058 | 0.84 | –
30 | C=CC(=O)N1CC(n2c(NC(=O)c3cccc(C(F)(F)F)c3)nc3cc(C)ccc32)C1 [Example 17-99] | – | – | 0.097 | 1.22 | –
31 | C=CC(=O)N1CCCC(n2c(NC(=O)c3cccc(C(F)(F)F)c3)nc3cc(C)ccc32)C1 (stereo not shown) [Example 17-100] | – | 0.34 | – | – | 0.026
32 | C/C=C/C(=O)N1CC(n2c(NC(=O)c3cccc(C(F)(F)F)c3)nc3cc(C)ccc32)C1 [Example 17-101] | – | – | 0.193 | 0.99 | –
33 | C=CC(=O)N1CCCC(n2c(NC(=O)c3cccc(C(F)(F)F)c3)nc3cc(C)ccc32)CC1 (stereo not shown) [Example 17-107] | – | – | 0.38 | 0.32 | –
